From publication PMC9184463, “Structural basis of ligand binding modes of human EAAT2” (Nature Communications, 2022)

Key:
[1] = tested on: hEAAT3; parameters: method as in PMID: 7521911; conditions: ref PMID: 7521911; cited from earlier work
[2] = tested on: hEAAT1; conditions: ref PMID: 7521911; cited from earlier work
[3] = tested on: hEAAT2; conditions: ref PMID: 7521911; cited from earlier work
[4] = biological target: T1, wild-type hEAAT2 (Homo sapiens, UniProt P43004); assay: whole-cell patch-clamp of hEAAT2-associated anion current, wild-type hEAAT2 in HEK293T cells; format: cell-based
T1 construct: Strep Tag II (N); superfolder GFP (sfGFP) (N); expressed in transfected cells; host or cells: HEK293T
T1 sequence (P43004 whole entry, the tested form may be a part): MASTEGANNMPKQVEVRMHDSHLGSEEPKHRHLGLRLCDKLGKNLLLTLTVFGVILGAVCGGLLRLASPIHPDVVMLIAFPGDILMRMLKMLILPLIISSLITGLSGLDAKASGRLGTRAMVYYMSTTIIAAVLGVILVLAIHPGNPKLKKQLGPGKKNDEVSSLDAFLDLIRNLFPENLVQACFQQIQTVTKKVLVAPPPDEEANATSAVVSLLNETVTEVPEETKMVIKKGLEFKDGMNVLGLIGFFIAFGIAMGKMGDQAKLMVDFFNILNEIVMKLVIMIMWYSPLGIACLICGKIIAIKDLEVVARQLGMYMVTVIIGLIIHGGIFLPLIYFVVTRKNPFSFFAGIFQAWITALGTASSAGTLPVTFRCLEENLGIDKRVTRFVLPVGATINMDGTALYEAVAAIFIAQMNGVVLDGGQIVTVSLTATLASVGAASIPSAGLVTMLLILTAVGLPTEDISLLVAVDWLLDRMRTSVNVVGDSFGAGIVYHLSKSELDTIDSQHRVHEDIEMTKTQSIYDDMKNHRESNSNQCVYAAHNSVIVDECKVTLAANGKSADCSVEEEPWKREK
Experimental: (§1) Human embryonic kidney 293T (HEK293T) cells were cultured in Dulbecco’s Modified Eagle Medium (DMEM, Gibco) media supplemented with 15% (v/v) fetal bovine serum (FBS, PAN-Biotech) at 37 °C with 5% CO2. HEK293T cells were grown in the culture dishes (d = 3.5 cm) (Thermo Fisher Scientific) for 24 h and then 1 μg hEAAT2 wild-type and mutant plasmids for per dishes were used to transiently transfect HEK293T using 0.7 μg Lipofectamine 2000 Reagent (Thermo Fisher Scientific). Cells were analyzed using electrophysiological experiments between 24 and 40 h after transfection at room temperature (21–25 °C).
(§2) Electrophysiological experiments were performed as described previously with a minor modification. External buffer contained 140 mM NaCl, 2 mM MgCl2, 2 mM CaCl2, and 10 mM HEPES (pH = 7.4 with NaOH and osmolarity of ∼310 mosmol L^−1) and while internal pipette solution comprised of 130 mM NaSCN, 2 mM MgCl2, 10 mM EGTA, 10 mM HEPES (pH = 7.4 with NaOH and osmolarity of ∼310 mosmol L^−1) and 10 mM glutamate. 50 mM WAY-213613 stock solutions were prepared in dimethyl sulfoxide (DMSO), followed by dilutions to working concentrations with the above-mentioned external buffer. […] Whole cell patch-clamp experiment recordings were made from isolated GFP-positive HEK293T cells (hEAAT2 wild type and mutants). In all, 3–6 MΩ was used to fire a polished pipette (Sutter Instrument). […] Cells were immersed in the above-mentioned external buffer supplemented with a specified concentration of glutamate or WAY-213613. Glutamate-induced anion current, Na^+-dependent anion leak current and glutamate transport current or WAY-213613 inhibited anion leak currents were recorded using an EPC-10 amplifier (HEKA Electronic) at a 20 kHz sample rate with low pass filter at 5 kHz. All experiments were executed at 0 mV. After the cell current was stabilized, glutamate or WAY-213613 was sustained at the indicated concentrations from external dosing for at least 6 s. Subsequently, the cell was washed away with external buffer to start a new round of applications or end the experiment. The plateau currents were used for the following calculations. For analysis, the data was acquired by PatchMaster program (HEKA Electronic) at 5 s after recording. Nonlinear dose–response relationships were fitted into a Michaelis–Menten-like equation shown as below to obtain the apparent Km and Ki values in the presence of glutamate or WAY-213613.1 I/Imax=Km/i/C+Km/i In this equation, I represent the current at different glutamate or inhibitor concentrations, and Imax represents the maximal current at the saturating concentration of glutamate or inhibitor. [C] represents the concentration of glutamate or inhibitor. Km/i represents the apparent constant.

[5] = biological target: T2, hEAAT2 mutant R478A (Homo sapiens, UniProt P43004, R478A); assay: whole-cell patch-clamp, hEAAT2 mutant R478A in HEK293T cells; format: cell-based
T2 construct: Strep Tag II (N); superfolder GFP (sfGFP) (N); expressed in transfected cells; host or cells: HEK293T
T2 sequence (P43004 whole entry R478A): as the sequence (P43004 whole entry, the tested form may be a part) above, with R478A counted along it
Experimental: as §1, §2

[6] = biological target: T3, hEAAT2 mutant D475A (Homo sapiens, UniProt P43004, D475A); assay: whole-cell patch-clamp, hEAAT2 mutant D475A in HEK293T cells; format: cell-based
T3 construct: Strep Tag II (N); superfolder GFP (sfGFP) (N); expressed in transfected cells; host or cells: HEK293T
T3 sequence (P43004 whole entry D475A): as the sequence (P43004 whole entry, the tested form may be a part) above, with D475A counted along it
Experimental: as §1, §2

[7] = biological target: T4, hEAAT2 mutant S441G (Homo sapiens, UniProt P43004, S441G); assay: whole-cell patch-clamp, hEAAT2 mutant S441G in HEK293T cells; format: cell-based; conditions: 0 mV; for glutamate-induced current, normalized (MEAN): S441G, normalized to maximal current
T4 construct: Strep Tag II (N); superfolder GFP (sfGFP) (N); expressed in transfected cells; host or cells: HEK293T
T4 sequence (P43004 whole entry S441G): as the sequence (P43004 whole entry, the tested form may be a part) above, with S441G counted along it
Experimental: as §1, §2

[8] = biological target: T5, hEAAT2 mutant V468I (Homo sapiens, UniProt P43004, V468I); assay: whole-cell patch-clamp, hEAAT2 mutant V468I in HEK293T cells; format: cell-based; conditions: for glutamate-induced current, normalized (MEAN): V468I, 0 mV
T5 construct: Strep Tag II (N); superfolder GFP (sfGFP) (N); expressed in transfected cells; host or cells: HEK293T
T5 sequence (P43004 whole entry V468I): as the sequence (P43004 whole entry, the tested form may be a part) above, with V468I counted along it
Experimental: as §1, §2

[9] = biological target: T6, hEAAT2 mutant L467I (Homo sapiens, UniProt P43004, L467I); assay: whole-cell patch-clamp, hEAAT2 mutant L467I in HEK293T cells; format: cell-based; conditions: for glutamate-induced current, normalized (MEAN): L467I, 0 mV
T6 construct: Strep Tag II (N); superfolder GFP (sfGFP) (N); expressed in transfected cells; host or cells: HEK293T
T6 sequence (P43004 whole entry L467I): as the sequence (P43004 whole entry, the tested form may be a part) above, with L467I counted along it
Experimental: as §1, §2

[10] = biological target: T7, hEAAT2 mutant I464V (Homo sapiens, UniProt P43004, I464V); assay: whole-cell patch-clamp, hEAAT2 mutant I464V in HEK293T cells; format: cell-based; conditions: for glutamate-induced current, normalized (MEAN): I464V, 0 mV
T7 construct: Strep Tag II (N); superfolder GFP (sfGFP) (N); expressed in transfected cells; host or cells: HEK293T
T7 sequence (P43004 whole entry I464V): as the sequence (P43004 whole entry, the tested form may be a part) above, with I464V counted along it
Experimental: as §1, §2

[11] = 3 μM glutamate, normalized to current at 1000 μM
[12] = 10 μM glutamate, normalized to current at 1000 μM
[13] = 30 μM glutamate, normalized to current at 1000 μM
[14] = 100 μM glutamate, normalized to current at 1000 μM
[15] = 300 μM glutamate, normalized to current at 1000 μM
[16] = 1000 μM glutamate, normalization reference

## N[C@@H](CC(=O)O)C(=O)O [aspartate]
[1]
  Km: 47 µM
[2]
  Km: 60 µM
[3]
  Km: 54 µM

## N[C@@H](CCC(=O)O)C(=O)O [glutamate]
[4]; 3 μM glutamate, WT, 0 mV, normalized to current at 1000 μM glutamate
  glutamate-induced current, normalized (MEAN): 0.1101
[4]; 10 μM glutamate, WT, 0 mV, normalized to current at 1000 μM glutamate
  glutamate-induced current, normalized (MEAN): 0.2265
[4]; 30 μM glutamate, WT, 0 mV, normalized to current at 1000 μM glutamate
  glutamate-induced current, normalized (MEAN): 0.5388
[4]; 100 μM glutamate, WT, 0 mV, normalized to current at 1000 μM glutamate
  glutamate-induced current, normalized (MEAN): 0.751
[4]; 300 μM glutamate, WT, 0 mV, normalized to current at 1000 μM glutamate
  glutamate-induced current, normalized (MEAN): 0.9307
[4]; 1mM Glutamate, WT, 0 mV, Na+ dependent leak current subtracted
  glutamate-related current density (MEAN): -27.6784 pA/pF
[4]; 1000 μM glutamate, WT, 0 mV, normalization reference
  glutamate-induced current, normalized (MEAN): 1
[4]; wild-type hEAAT2
  effect of substrate on anion leak currents: increased the amplitudes of anion leak currents
[4]; wild-type hEAAT2, HEK293T, 0 mV, Michaelis-Menten-like fit, read-out: apparent Km (activation of anion current)
  Km: 30 ± 2.5 µM
[5]; 1mM Glutamate, R478A, 0 mV, Na+ dependent leak current subtracted
  glutamate-related current density (MEAN): 0.4954 pA/pF
[5]; R478A mutant, glutamate up to 1 mM
  activation of anion currents: failed to activate anion currents
[1]
  Km: 62 µM
[6]; 1mM Glutamate, D475A, 0 mV, Na+ dependent leak current subtracted
  glutamate-related current density (MEAN): 1.113 pA/pF
[6]; D475A mutant, glutamate up to 1 mM
  activation of anion currents: failed to activate anion currents
[7]; 0.1 μM glutamate
  glutamate-induced current, normalized (MEAN): 0.1494
[7]; 0.3 μM glutamate
  glutamate-induced current, normalized (MEAN): 0.4931
[7]; 1 μM glutamate
  glutamate-induced current, normalized (MEAN): 0.73
[7]; 3 μM glutamate
  glutamate-induced current, normalized (MEAN): 0.9123
[7]; 10 μM glutamate
  glutamate-induced current, normalized (MEAN): 1
[7]; 30 μM glutamate
  glutamate-induced current, normalized (MEAN): 1.038
[7]; S441G mutant, read-out: apparent Km
  Km: 0.4 ± 0.03 µM
[8]; [11]
  glutamate-induced current, normalized (MEAN): 0.1059
[8]; [12]
  glutamate-induced current, normalized (MEAN): 0.2526
[8]; [13]
  glutamate-induced current, normalized (MEAN): 0.5136
[8]; [14]
  glutamate-induced current, normalized (MEAN): 0.8108
[8]; [15]
  glutamate-induced current, normalized (MEAN): 0.9282
[8]; [16]
  glutamate-induced current, normalized (MEAN): 1
[8]; V468I mutant, glutamate in external solution
  activation of anion current: significantly activate anion current with similar efficacy as that of wild-type hEAAT2
[2]
  Km: 48 µM
[9]; [11]
  glutamate-induced current, normalized (MEAN): 0.09492
[9]; [12]
  glutamate-induced current, normalized (MEAN): 0.2532
[9]; [13]
  glutamate-induced current, normalized (MEAN): 0.5328
[9]; [14]
  glutamate-induced current, normalized (MEAN): 0.7948
[9]; [15]
  glutamate-induced current, normalized (MEAN): 0.9242
[9]; [16]
  glutamate-induced current, normalized (MEAN): 1
[9]; L467I mutant, glutamate in external solution
  activation of anion current: significantly activate anion current with similar efficacy as that of wild-type hEAAT2
[10]; [11]
  glutamate-induced current, normalized (MEAN): 0.1004
[10]; [12]
  glutamate-induced current, normalized (MEAN): 0.2675
[10]; [13]
  glutamate-induced current, normalized (MEAN): 0.5257
[10]; [14]
  glutamate-induced current, normalized (MEAN): 0.7538
[10]; [15]
  glutamate-induced current, normalized (MEAN): 0.9218
[10]; [16]
  glutamate-induced current, normalized (MEAN): 1
[10]; I464V mutant, glutamate in external solution
  activation of anion current: significantly activate anion current with similar efficacy as that of wild-type hEAAT2
[3]
  Km: 97 µM
